Structures can show the parent of a compound that is named as a salt.
The compounds below were run against T1, SMO (Mus musculus, UniProt P56726) (assay: Smoothened (SMO)/Sonic Hedgehog (SHh) Transient Transcriptional Activation Assay (Gli-luciferase reporter in C3H10T1/2 cells)). Settings: 2 uM test compound, SHh 250 ng/ml, 20 hrs.
T1 construct: endogenous in cells; host or cells: C3H10T1/2 (ATCC #CCL-226)
Type: cell-based, murine
In short: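 Luminescence (Dual-Glo) measured after 20 h co-exposure at 37 °C to 250 ng/ml human SHh and compound at 2 uM down to 2 nM final. Cells were C3H10T1/2 carrying a transfected murine 10× Gli response-element luciferase construct with pEGFP, starved 20 h in 0.5% calf serum beforehand.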

T1 sequence (P56726 33-793): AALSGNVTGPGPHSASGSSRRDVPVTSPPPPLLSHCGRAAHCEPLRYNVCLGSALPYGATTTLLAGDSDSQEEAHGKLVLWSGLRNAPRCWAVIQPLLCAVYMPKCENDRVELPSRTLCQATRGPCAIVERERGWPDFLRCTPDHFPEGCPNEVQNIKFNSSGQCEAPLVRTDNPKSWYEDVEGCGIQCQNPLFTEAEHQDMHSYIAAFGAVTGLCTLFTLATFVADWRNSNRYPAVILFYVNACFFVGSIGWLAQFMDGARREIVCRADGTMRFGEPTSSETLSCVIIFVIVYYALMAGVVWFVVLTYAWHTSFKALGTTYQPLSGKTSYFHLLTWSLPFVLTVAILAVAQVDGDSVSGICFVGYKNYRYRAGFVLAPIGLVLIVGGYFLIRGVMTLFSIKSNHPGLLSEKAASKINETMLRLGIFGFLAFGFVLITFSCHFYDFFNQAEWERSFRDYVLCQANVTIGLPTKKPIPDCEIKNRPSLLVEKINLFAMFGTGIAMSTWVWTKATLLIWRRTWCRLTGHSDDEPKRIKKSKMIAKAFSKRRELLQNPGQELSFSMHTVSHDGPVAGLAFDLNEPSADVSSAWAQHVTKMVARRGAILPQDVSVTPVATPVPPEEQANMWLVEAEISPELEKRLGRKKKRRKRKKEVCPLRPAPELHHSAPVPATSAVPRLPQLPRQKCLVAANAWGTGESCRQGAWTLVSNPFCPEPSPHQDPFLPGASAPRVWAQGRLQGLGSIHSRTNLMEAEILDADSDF

SMO % inhibition at 2 uM [%] | Compound
84 | N-((1R,3S)-3-(1H-benzo[d]imidazol-2-yl)cyclohexyl]-2,3-dihydrobenzo[b][1,4]dioxine-6-carboxamide and N-((1S,3R)-3-(1H-benzo[d]imidazol-2-yl)cyclohexyl)-2,3-dihydrobenzo[b][1,4]dioxine-6-carboxamide [Example 2]
103 | N-(3-(6-((2-Methoxyethylamino)methyl)-1-methyl-1H-benzo[d]imidazol-2-yl)cyclohexyl)-2,3-dihydrobenzo[b][1,4]dioxine-6-carboxamide and N-(3-(5-((2-methoxyethylamino)methyl)-1-methyl-1H-benzo[d]imidazol-2-yl)cyclohexyl)-2,3-dihydrobenzo[b][1,4]dioxine-6-carboxamide [Example 38]
80 | N-((1R,3R)-3-(1H-benzo[d]imidazol-2-yl)cyclohexyl)-3-oxo-3,4-dihydro-2H-benzo[b][1,4]oxazine-6-carboxamide and N-((1S,3S)-3-(1H-benzo[d]imidazol-2-yl)cyclohexyl)-3-oxo-3,4-dihydro-2H-benzo[b][1,4]oxazine-6-carboxamide [Example 48]

Compound | SMO % inhibition at 2 uM [%]
N-(3-(1-Methyl-6-(morpholinomethyl)-1H-benzo[d]imidazol-2-yl]cyclohexyl)-2,3-dihydrobenzo[b][1,4]dioxine-6-carboxamide and N-(3-(1-Methyl-5-(morpholinomethyl)-1H-benzo[d]imidazol-2-yl]cyclohexyl)-2,3-dihydrobenzo[b][1,4]dioxine-6-carboxamide [Example 37] | 88

Same assay, conditions: C3H 10T1/2, 2 uM test compound, SHh 250 ng/ml, 20 hrs, read-out: SMO % inhibition at 2 uM

inhibition at 2 µM [%] | Compound
103 | Cc1ccc2[nH]c(C3CCCC(NC(=O)c4ccc5c(c4)OCCO5)C3)nc2c1 (centres unmarked) [Example 28, N-(3-(5-Methyl-1H-benzo[d]imidazol-2-yl)cyclohexyl]-2,3-dihydrobenzo[b][1,4]dioxine-6-carboxamide]
107 | O=C(NC1CCCC(c2nc3ccccc3[nH]2)C1)c1ccc2c(c1)OCCO2 (centres unmarked) [Example 1, N-(3-(1H-benzo[d]midazol-2-yl)cyclohexyl)-2,3-dihydrobenzo[b][1,4]dioxine-6-carboxamide]

Same assay, conditions: C3H 10T1/2, 2 μM test compound, SHh 250 ng/ml, 20 hrs, read-out: SMO CELL % INHIBITION @ 2 μM

Compound | inhibition at 2 µM [%]
O=C(Cn1ncc2ccccc21)NC1CCCC(c2nc3ccccc3[nH]2)C1 (centres unmarked) [Example 95, N-[3-(1H-benzimidazol-2-yl)cyclohexyl]-2-(1H-indazol-1-yl)acetamide triflouroacetate] | 20
CC(C)(C)c1ccc2nc(C3CCCC(NC(=O)c4ccc5c(c4)OCCO5)C3)[nH]c2c1 (centres unmarked) [Example 78, N-[3-(6-tert-butyl-1H-benzimidazol-2-yl)cyclohexyl]-2,3-dihydro-1,4-benzodioxine-6-carboxamide HCl] | 100
O=C(NC1CCCC(c2nc3ccc(F)c(F)c3[nH]2)C1)c1ccc2c(c1)OCCO2 (centres unmarked) [Example 81, N-[3-(6,7-difluoro-1H-benzimidazol-2-yl)cyclohexyl]-2,3-dihydro-1,4-benzodioxine-6-carboxamide HCl] | 103
O=C(NC1CCCC(c2nc3ccccc3[nH]2)C1)c1cnn(Cc2ccccc2)c1 (centres unmarked) [Example 91, N-[3-(1H-benzimidazol-2-yl)cyclohexyl]-1-benzyl-1H-pyrazole-4-carboxamide triflouroacetate] | 99
O=C(N[C@@H]1CCC[C@H](c2nc3ccccc3n2CCO)C1)c1ccc2c(c1)OCCO2 (stereo in doubt) [Example 71, N-{3-[1-(2-hydroxyethyl)-1H-benzimidazol-2-yl]cyclohexyl}-2,3-dihydro-1,4-benzodioxine-6-carboxamide] | 98
O=C(Cn1nc2ccccc2n1)NC1CCCC(c2nc3ccccc3[nH]2)C1 (centres unmarked) [Example 92, N-[3-(1H-benzimidazol-2-yl)cyclohexyl]-2-(2H-1,2,3-benzotriazol-2-yl)acetamide triflouroacetate] | 90
COc1ccc2[nH]c([C@H]3CCC[C@@H](NC(=O)c4ccc5c(c4)OCCO5)C3)nc2c1 [Example 88, N-[(1R,3S)-3-(5-methoxy-1H-benzimidazol-2-yl)cyclohexyl]-2,3-dihydro-1,4-benzodioxine-6-carboxamide HCl] | 106
O=C(NC1CCCC(c2nc3ccccc3[nH]2)C1)c1ccc(CN2CCOCC2)o1 (centres unmarked) [Example 134, N-[3-(1H-benzimidazol-2-yl)cyclohexyl]-5-(morpholin-4-ylmethyl)-2-furamide triflouroacetate] | 101
Cc1ccc(C(=O)NC2CCCC(c3nc4ccccc4[nH]3)C2)c(Cl)n1 (centres unmarked) [Example 124, N-[3-(1H-benzimidazol-2-yl)cyclohexyl]-2-chloro-6-methylnico-tinamide triflouroacetate] | 62
COc1cc(OC)cc(C(=O)NC2CCCC(c3nc4ccc(C#N)cc4[nH]3)C2)c1 (centres unmarked) [Example 68, N-[3-(6-cyano-1H-benzimidazol-2-yl)cyclohexyl]-3,5-dimethoxybenz-amide] | 89

Next, values leading:

inhibition at 2 µM [%] | Compound
52 | CC(=O)c1ccc(OCC(=O)NC2CCCC(c3nc4ccccc4[nH]3)C2)cc1 (centres unmarked) [Example 157, 2-(4-acetylphenoxy)-N-[3-(1H-benzimidazol-2-yl)cyclohexyl] acetamide triflouroacetate]
114 | O=C(Nc1ccc(Cl)c(C(F)(F)F)c1)N[C@@H]1CCC[C@H](c2nc3ccccc3[nH]2)C1 [Example 238, 1-[(1R,3S)-3-(1H-benzimidazol-2-yl)cyclohexyl]-3-[4-chloro-3-(trifluoromethyl)phenyl]urea]
107 | O=C(NC12CCCC(c3nc4cc(C(F)(F)F)ccc4[nH]3)(C1)C2)c1ccc2c(c1)OCCO2 [Example 257, N-{5-[5-(trifluoromethyl)-1H-benzimidazol-2-yl]bicyclo[3.1.1]hept-1-yl}-2,3-dihydro-1,4-benzodioxine-6-carboxamide]
60 | Cn1c([C@@H]2CCC[C@@H](NC(=O)c3ccc4c(c3)OCCO4)C2)nc2ccccc21 [Example 240, N-([1R,3R]-3-(1-methyl-1H-benzo[d]imidaz-ol-2-yl)cyclohexyl)-2,3-dihydrobenzo[b] [1,4]dioxine-6-carboxamide HCl]
84.7 | O=C(NC12CCCC(c3nc4cc(Cl)ccc4[nH]3)(C1)C2)c1cc2c(cn1)OCCO2 [Example 271, N-[5-(5-chloro-1H-benzimidazol-2-yl)bicyclo[3.1.1]hept-1-yl]-2,3-dihydro[1,4]di-oxino[2,3-c]pyridine-7-carboxamide]
96.2 | O=C(N[C@@H]1CCC[C@H](c2nc3ccccc3[nH]2)C1)c1ccc2c(c1)CNCC2 [Example 308, N-[(1R,3S)-3-(1H-benzimidazol-2-yl)cyclohexyl]-1,2,3,4-tetrahydroiso-quinoline-7-carboxamide HCl]
106 | Cn1ccnc1C(=O)NC1CCCC(c2nc3ccccc3[nH]2)C1 (centres unmarked) [Example 164, N-[3-(1H-benzimidazol-2-yl)cyclohexyl]-1-methyl-1H-imidazole-2-carboxamide triflouroacetate]
110 | COc1cc(OC)cc(C(=O)N[C@@H]2CCC[C@H](c3nc4ccc(C(F)(F)F)cc4[nH]3)C2)c1 [Example 170, 3,5-dimethoxy-N-{(1R,3S)-3-[6-(trifluoromethyl)-1H-benzimidazol-2-yl]cyclohexyl} benzamide HCl]
46 | O=C(NC1CCCC(c2nc3ccccc3[nH]2)C1)c1cc(-c2ccccn2)n[nH]1 (centres unmarked) [Example 153, N-[3-(1H-benzimidazol-2-yl)cyclohexyl]-3-pyridin-2-yl-1H-pyrazole-5-carboxamide triflouroacetate]
86 | O=C(N[C@@H]1CCC[C@H](c2nc3ccccc3[nH]2)C1)c1ccc2c(n1)OCCO2 [Example 242, N-((1R,3S)-3-(1H-benzo[d]imidaz-ol-2-yl)cyclohexyl)-2,3-dihydro-[1,4]dioxino[2,3-b]pyridine-6-carboxamide]
56 | O=C(N[C@@H]1CCC[C@H](c2nc3ccccc3[nH]2)C1)c1ccc2nsnc2c1 [Example 206, N-[(1R,3S)-3-(1H-benzimidazol-2-yl)cyclohexyl]-2,1,3-benzothiadiazole-5-carboxamide triflouroacetate]
106 | O=C(N[C@@H]1CCC[C@H](c2nc3cc(C(F)(F)F)ccc3[nH]2)C1)c1n[nH]c2c1CCCCCC2 [Example 283, N-{(1R,3S)-3-[5-(trifluoromethyl)-1H-benzimidazol-2-yl]cyclohexyl} 4,5,6,7,8,9-hexahydro-1H-cycloocta[c]-pyrazole-3-carboxamide HCl]
45 | O=C(N[C@H]1CCC[C@@H](c2nc3cc(Br)ccc3[nH]2)C1)c1ccc2c(c1)OCCO2 [Example 150, N-[(1S,3R)-3-(5-bromo-1H-benzimidazol-2-yl)cyclohexyl]-2,3-dihydro-1,4-benzodioxine-6-carboxamide HCl]
111 | O=C(Nc1cc(F)cc2c1OCOC2)N[C@@H]1CCC[C@H](c2nc3ccccc3[nH]2)C1 [Example 230, 1-[(1R,3S)-3-(1H-benzimidazol-2-yl)cyclohexyl]-3-(6-fluoro-4H-1,3-benzodioxol-8-yl)urea]
107 | O=C(N[C@@H]1CCC[C@H](c2nc3cc(C(F)(F)F)ccc3[nH]2)C1)c1ccc2c(c1)CCNC2 [Example 287, N-{(1R,3S)-3-[5-(trifluoromethyl)-1H-benzimidazol-2-yl]cyclohexyl}-1,2,3,4-tetrahydroisoquino-line-6-carboxamide HCl]
86 | Cc1n[nH]c(C)c1/C=C/C(=O)NC1CCCC(c2nc3ccccc3[nH]2)C1 (centres unmarked) [Example 136, (2E)-N-[3-(1H-benzimidazol-2-yl)cyclohexyl]-3-(3,5-dimethyl-1H-pyrazol-4-yl)acrylamide triflouroacetate]
